Measurements published in patent USRE47689E1, “Compounds for treating spinal muscular atrophy” (PTC Therapeutics, Inc., priority 2011, dated 2019).
Like-named read-outs stand apart in the source and are kept apart here.

Assays:
Smn protein = Smn protein assay in cultured cells (SMN HTRF); type: cell-based, human; conditions: 48 hours; for EC1.5x (concentration giving 1.5-fold Smn protein increase): SMA Type 1 patient fibroblast cells (GM03813), 7-point concentration curve, SMN HTRF, concentration producing 1.5 times Smn protein vs DMSO vehicle control, read-out: EC1.5x for Smn protein expression; for maximum fold (Fold) increase of Smn protein: SMA patient fibroblast cells, 7-point concentration data, fold increase relative to vehicle control (SMN HTRF)
Method in brief: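 Smn in SMA fibroblast lysates, measured by anti-SMN HTRF after 48 h compound exposure; EC1.5x from fold change over vehicle.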

[1] = system: SMN2 minigene (full length SMN2 minigene mRNA containing SMN2 exon 7); experiment: SMN2 minigene mRNA splicing RT-qPCR assay in cultured cells; type: cell-based, human; conditions: Homo sapiens, HEK293-H, read-out: EC1.5x for production of full length SMN2 mRNA
Method in brief: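 Full-length SMN2 minigene mRNA (exon 7 included), minigene-specific and not endogenous SMN, quantified by RT-qPCR multiplexed with GAPDH in stably transfected HEK293H cells after 24 h compound exposure at 37° C. Abundance from efficiency-corrected Ct, normalized to GAPDH and vehicle; EC1.5x reported as star bins.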

[2] = HEK293H cells stably transfected with SMN2-A minigene, 24 hours, 7-point concentration curve, 1.5-fold relative to vehicle-treated cells

melting point | SMILES | EC1.5x (concentration giving 1.5-fold Smn protein increase) (Smn protein) [nM] | maximum fold (Fold) increase of Smn protein (Smn protein) | EC (1.5-fold) [1, 2] [µM] | EC (1.5-fold) ([1]; 24 h) [µM]
170 to 172 °C | CC(=O)O.CC[C@H]1CN(c2ccc3cc(-c4cn5cc(C)nc(C)c5n4)c(=O)oc3c2)CCN1C [Compound 778, 3-(6,8-dimethylimidazo [1,2-a]pyrazin-2-yl)-7-[(3S)-3-ethyl-4-methylpiperazin-1-yl]-2H-chromen-2-one acetate] | < 300 | ***** (fold increase >1.65) | < 0.1 | –
170 to 174 °C | COc1cc(-c2cc3ccc(N4CCNCC4)cc3oc2=O)ccc1C [Compound 574, 3-(3-methoxy-4-methylphenyl)-7-(piperazin-1-yl)-2H-chromen-2-one] | – | * (maximum fold increase of ≤1.2) | 1 to 3 | –
224 to 233 °C | Cc1cc(Cl)cn2cc(-c3cc4ccc(N5CCNCC5)cc4oc3=O)nc12 [Compound 263, 3-(6-chloro-8-methylimidazo[1,2-a]pyridin-2-yl)-7-(piperazin-1-yl)-2H-chromen-2-one] | – | * (maximum fold increase of ≤1.2) | 3 to 30 | –
229 to 232 °C | Cc1ccc2nc(-c3cc4ccc(N5CCNCC5)cc4oc3=O)cn2c1 [Compound 51, 3-(6-methylimidazo[1,2-a]pyridin-2-yl)-7-(piperazin-1-yl)-2H-chromen-2-one] | < 300 | ***** (fold increase >1.65) | 0.1 to 0.3 | –
190 to 193 °C | Cc1cn2cc(-c3cc4ccc(CCCCN(C)C)cc4oc3=O)nc2c(C)n1 [Cpd 902, 7-[4-(dimethylamino)butyl]-3-(6,8-dimethylimidazo[1,2-a]pyrazin-2-yl)-2H-chromen-2-one] | < 300 | ***** (fold increase >1.65) | < 0.1 | –
291 °C (dec.) | CN1CCN(c2ccc3cc(-c4cn5cc(C#N)ccc5n4)c(=O)oc3c2)CC1 [Compound 208, 2-[7-(4-methylpiperazin-1-yl)-2-oxo-2H-chromen-3-yl]imidazo[1,2-a]pyridine-6-carbonitrile] | – | * (maximum fold increase of ≤1.2) | 1 to 3 | –
228 to 230 °C | Cc1nc2ccc(-c3cc4ccc(N5CCCNCC5)cc4oc3=O)cc2s1 [Compound 771, 7-(1,4-diazepan-1-yl)-3-(2-methyl-1,3-benzothiazol-6-yl)-2H-chromen-2-one] | – | * (maximum fold increase of ≤1.2) | 1 to 3 | –
166 to 168 °C | O=c1oc2cc(N3CCNCC3)ccc2cc1-c1cccc(OC2CCC2)n1 [Compound 414, 3-[6-(cyclobutyloxy)pyridin-2-yl]-7-(piperazin-1-yl)-2H-chromen-2-one] | – | * (maximum fold increase of ≤1.2) | 3 to 30 | –
115 to 118 °C | Cc1cn2cc(-c3cc4ccc(N5CCCN(C(C)C)CC5)cc4oc3=O)cc2c(C)n1 [Compound 754, 3-(1,3-dimethylpyrrolo[1,2-a]pyrazin-7-yl)-7-[4-(propan-2-yl)-1,4-diazepan-1-yl]-2H-chromen-2-one] | – | *** (fold increase between >1.35 and ≤1.5) | < 0.1 | –
182 to 185 °C | CC1(C)CN(c2ccc3cc(-c4cn5cc(F)ccc5n4)c(=O)oc3c2)CCN1 [Compound 508, 7-(3,3-dimethylpiperazin-1-yl)-3-(6-fluoroimidazo[1,2-a]pyridin-2-yl)-2H-chromen-2-one] | – | ** (fold increase between >1.2 and ≤1.35) | 0.3 to 1 | –

SMILES | melting point | EC1.5x (concentration giving 1.5-fold Smn protein increase) (Smn protein) [nM] | maximum fold (Fold) increase of Smn protein (Smn protein) | EC (1.5-fold) [1, 2] [µM] | EC (1.5-fold) ([1]; 24 h) [µM]
C[C@H]1CN(c2ccc3cc(-c4ccncc4)c(=O)oc3c2)CCN1 [Compound 549, 7-[(3S)-3-methylpiperazin-1-yl]-3-(pyridin-4-yl)-2H-chromen-2-one] | 210 to 213 °C | – | ** (fold increase between >1.2 and ≤1.35) | – | 1 to 3
